According to patent publication US10308637B2 (LifeSci Pharmaceuticals, Inc., priority 2015, dated 2019):
pEC50, pIC50: −log10 of the molar value.

Assays:
[1] = Contact Assay (percentage inhibition from fluorescence intensity); type: biochemical
Method: The percentage inhibition was calculated using the following equation:
[formula] where, Mean(BG) is the average value of the fluorescence intensity of the background wells and Mean(PC) is the average value of the fluorescence intensity of the positive control wells.
Table 4 provides the EC50 values of various compounds disclosed herein.

human plasma kallikrein = human plasma kallikrein (Homo sapiens (Human), UniProt P03952); assay: In vitro enzyme inhibition of human plasma kallikrein (Pro-Phe-Arg-AMC cleavage); type: biochemical; details: Pro-Phe-Arg-AMC substrate, 37° C., read-out: hPK IC50
Sequence of human plasma kallikrein (P03952 391-638 limits assumed): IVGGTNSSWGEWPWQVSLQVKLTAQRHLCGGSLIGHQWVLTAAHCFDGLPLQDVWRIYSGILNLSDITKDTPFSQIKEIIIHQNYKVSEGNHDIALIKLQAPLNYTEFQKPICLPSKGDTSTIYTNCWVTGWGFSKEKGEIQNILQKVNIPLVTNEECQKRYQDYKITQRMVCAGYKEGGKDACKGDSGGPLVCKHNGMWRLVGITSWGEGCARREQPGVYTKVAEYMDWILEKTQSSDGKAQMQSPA
Sequence of human plasma kallikrein (P03952 20-390 partner limits assumed): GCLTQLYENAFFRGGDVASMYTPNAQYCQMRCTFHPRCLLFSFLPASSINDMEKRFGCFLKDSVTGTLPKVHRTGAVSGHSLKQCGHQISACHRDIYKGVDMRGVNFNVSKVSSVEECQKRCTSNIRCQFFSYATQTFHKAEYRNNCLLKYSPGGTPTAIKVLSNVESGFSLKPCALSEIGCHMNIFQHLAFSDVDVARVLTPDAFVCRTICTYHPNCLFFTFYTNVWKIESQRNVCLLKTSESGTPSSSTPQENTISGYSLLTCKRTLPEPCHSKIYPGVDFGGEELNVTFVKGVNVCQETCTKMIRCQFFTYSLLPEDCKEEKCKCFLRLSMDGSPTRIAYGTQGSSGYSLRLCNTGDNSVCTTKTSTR
Method: The ability of the compounds disclosed herein to inhibit human plasma kallikrein activity was quantified according to the procedures below.
A 10 mM solution of the test compound was made in DMSO. […] A control tube containing only DMSO is included. 16 μL of each compound test solution was combined with 384 μL of assay buffer (50 mM Tris-HCl pH 7.5, 150 mM NaCl, 0.01% Triton X-100) to yield a “4× test compound buffer stock”.
These solutions are hereby referred to as 4×hPK and 2×PFR-AMC, respectively.
50 μL was removed from this mixture and placed into duplicate wells on a Microfluor 1Black U-bottom microtiter plate (Thermo Scientific). This plate was incubated for 5 minutes at 37° C. To each well, 50 µL of pre-warmed 2×PFR-AMC was added to start the enzymatic reaction. Cleavage of PFR-AMC was monitored in a Biotek Synergy H4 reader set at 37° C. Readings are taken every 43 seconds for 1 hour. […] The IC50 is calculated using the Gen5 (Biotek Instruments).
The ability of the compounds in Table 3 to inhibit human plasma kallikrein activity was determined.

Row | Molecule | pEC50 [1] | pIC50 (human plasma kallikrein)
1 | Cc1cc(N)nc(C)c1CNC(=O)c1cc(Cc2ccc3ncc(Cl)cc3c2)nc(C(=O)O)c1 [Example 209, 4-((6-amino-2,4-dimethylpyridin-3-yl)methylcarbamoyl)-6-((3-chloroquinolin-6-yl)methyl)picolinic Acid] | 6.00 to 7.00 | > 7.00
2 | N-(3-chloro-6-fluoro-1H-indol-5-ylmethyl)-2-(2-cyano-quinolin-6-ylmethyl)-isonicotinamide [Example 130] |  | > 7.00
3 | Cc1cc(N)nc(C)c1CNC(=O)c1cc(CO)nc(Cc2ccc3ncc(Cl)cc3c2)c1 [Example 212, N-((6-amino-2,4-dimethylpyridin-3-yl)methyl)-2-((3-chloroquinolin-6-yl)methyl)-6-(hydroxymethyl)isonicotinamide] | ≥ 7.00 | 
4 | Cc1cnc2c(S(N)(=O)=O)cc(Cc3cc(C(=O)NCc4cc5c(Cl)c[nH]c5cc4F)ccn3)cc2c1 [Example 287, N-((3-chloro-6-fluoro-1H-indol-5-yl)methyl)-2-((3-methyl-8-sulfamoylquinolin-6-yl)methyl)isonicotinamide] | ≥ 7.00 | 
5 | O=C(NCc1cnc2[nH]cc(Cl)c2c1)c1ccnc(Cc2ccc3ncc(C4CC4)cc3c2)c1 [Example 246, N-((3-chloro-1H-pyrrolo[2,3-b]pyridin-5-yl)methyl)-2-((3-cyclopropylquinolin-6-yl)methyl)isonicotinamide] | 6.00 to 7.00 | 
6 | N#Cc1cc(Cc2cc(C(=O)NCc3ccc4c(N)nccc4c3)ccn2)cc2cc(Cl)cnc12 [Example 57, N-(1-amino-isoquinolin-6-ylmethyl)-2-(3-chloro-8-cyano-quinolin-6-ylmethyl)-isonicotinamide] | 6.00 to 7.00 | 
7 | Cc1cc(N)nc(C)c1CNC(=O)c1ccnc(Cc2cc3cc(C(F)(F)F)cnc3[nH]2)c1 [Example 215, N-((6-amino-2,4-dimethylpyridin-3-yl)methyl)-2-((5-(trifluoromethyl)-1H-pyrrolo[2,3-b]pyridin-2-yl)methyl)isonicotinamide] | 6.00 to 7.00 | 
8 | Cc1cnc2c(S(C)(=O)=O)cc(Cc3cc(C(=O)NCc4cc5c(Cl)c[nH]c5cc4F)ccn3)cc2c1 [Example 17, N-((3-chloro-6-fluoro-1H-indol-5-yl)methyl)-2-((3-methyl-8-(methylsulfonyl)quinolin-6-yl)methyl)isonicotinamide] | ≥ 7.00 | 
9 | CC(C)(O)c1cc(Cc2cc(C(=O)NCc3cnc4[nH]cc(Cl)c4c3)ccn2)cc2cc(Cl)cnc12 [Example 223, N-((3-chloro-1H-pyrrolo[2,3-b]pyridin-5-yl)methyl)-2-((3-chloro-8-(2-hydroxypropan-2-yl)quinolin-6-yl)methyl)isonicotinamide] | ≥ 7.00 | 
10 | CCc1cnc2ccc(Cc3cc(C(=O)NCc4ccc5c(N)nccc5c4)ccn3)cc2c1 [Example 283, N-((1-aminoisoquinolin-6-yl)methyl)-2-((3-ethylquinolin-6-yl)methyl)isonicotinamide] | ≥ 7.00 | 
11 | Cc1cc(N)nc(C)c1CNC(=O)c1ccnc(Cc2cc(C(C)(C)O)c3ncc(Cl)cc3c2)c1 [Example 219, N-((6-amino-2,4-dimethylpyridin-3-yl)methyl)-2-((3-chloro-8-(2-hydroxypropan-2-yl)quinolin-6-yl)methyl)isonicotinamide] | ≥ 7.00 | 
12 | NC(=O)c1cc(Cc2cc(C(=O)NCc3n[nH]c4ccc(Cl)cc34)ccn2)cc2cc(Cl)cnc12 [Example 60, 3-chloro-6-((4-(((5-chloro-1H-indazol-3-yl)methyl)carbamoyl)pyridin-2-yl)methyl)quinoline-8-carboxamide] | 6.00 to 7.00 | 
13 | Cc1c(CNC(=O)c2ccnc(Cc3ccc4ncc(C(F)(F)F)cc4c3)c2)ccc2c(N)nccc12 [Example 184, N-((1-amino-5-methylisoquinolin-6-yl)methyl)-2-((3-(trifluoromethyl)quinolin-6-yl)methyl)isonicotinamide] | ≥ 7.00 | 
14 | Cc1cc(N)nc(C)c1CNC(=O)c1ccnc(Cc2cnc3cc(F)c(Cl)cc3c2)c1 [Example 226, N-((6-amino-2,4-dimethylpyridin-3-yl)methyl)-2-((6-chloro-7-fluoroquinolin-3-yl)methyl)isonicotinamide] | ≥ 7.00 | 
15 | Cc1cnc2c(S(N)(=O)=O)cc(Cc3cc(C(=O)NCc4ccc5c(N)nccc5c4)ccn3)cc2c1 [Example 289, N-((1-aminoisoquinolin-6-yl)methyl)-2-((3-methyl-8-sulfamoylquinolin-6-yl)methyl)isonicotinamide] | ≥ 7.00 | 
16 | COc1cnc2ccc(Cc3cc(C(=O)NCc4c(C)cc(N)nc4C)ccn3)cc2c1 [Example 264, N-((6-amino-2,4-dimethylpyridin-3-yl)methyl)-2-((3-methoxyquinolin-6-yl)methyl)isonicotinamide] | ≥ 7.00 | 
17 | Cc1cnc2c(S(C)(=O)=O)cc(Cc3cc(C(=O)NCc4cc5cc[nH]c5cc4F)ccn3)cc2c1 [Example 18, N-((6-fluoro-1H-indol-5-yl)methyl)-2-((3-methyl-8-(methylsulfonyl)quinolin-6-yl)methyl)isonicotinamide] | 6.00 to 7.00 | 
18 | Cc1cnc2c(C(N)=O)cc(Cc3cc(C(=O)NCc4c(C)cc(N)nc4C)ccn3)cc2c1 [Example 77, 6-((4-(((6-amino-2,4-dimethylpyridin-3-yl)methyl)carbamoyl)pyridin-2-yl)methyl)-3-methylquinoline-8-carboxamide] | ≥ 7.00 | 
19 | NC(=O)c1cc(Cc2cc(C(=O)NCc3cnc4[nH]cc(Cl)c4c3)ccn2)cc2cc(Cl)cnc12 [Example 61, 3-chloro-6-((4-(((3-chloro-1H-pyrrolo[2,3-b]pyridin-5-yl)methyl)carbamoyl)pyridin-2-yl)methyl)quinoline-8-carboxamide] | 6.00 to 7.00 | 
